From ChEMBL document CHEMBL2040736, “Design of potent and selective hybrid inhibitors of the mitotic kinase Nek2: structure-activity relationship, structural biology, and cellular activity” (J Med Chem, 2012)

Assays:
[1] = molecular target: T1, Dual specificity protein kinase TTK (Homo sapiens, UniProt P33981); test: Inhibition of MPS1 by caliper method
T1 sequence (P33981 whole entry): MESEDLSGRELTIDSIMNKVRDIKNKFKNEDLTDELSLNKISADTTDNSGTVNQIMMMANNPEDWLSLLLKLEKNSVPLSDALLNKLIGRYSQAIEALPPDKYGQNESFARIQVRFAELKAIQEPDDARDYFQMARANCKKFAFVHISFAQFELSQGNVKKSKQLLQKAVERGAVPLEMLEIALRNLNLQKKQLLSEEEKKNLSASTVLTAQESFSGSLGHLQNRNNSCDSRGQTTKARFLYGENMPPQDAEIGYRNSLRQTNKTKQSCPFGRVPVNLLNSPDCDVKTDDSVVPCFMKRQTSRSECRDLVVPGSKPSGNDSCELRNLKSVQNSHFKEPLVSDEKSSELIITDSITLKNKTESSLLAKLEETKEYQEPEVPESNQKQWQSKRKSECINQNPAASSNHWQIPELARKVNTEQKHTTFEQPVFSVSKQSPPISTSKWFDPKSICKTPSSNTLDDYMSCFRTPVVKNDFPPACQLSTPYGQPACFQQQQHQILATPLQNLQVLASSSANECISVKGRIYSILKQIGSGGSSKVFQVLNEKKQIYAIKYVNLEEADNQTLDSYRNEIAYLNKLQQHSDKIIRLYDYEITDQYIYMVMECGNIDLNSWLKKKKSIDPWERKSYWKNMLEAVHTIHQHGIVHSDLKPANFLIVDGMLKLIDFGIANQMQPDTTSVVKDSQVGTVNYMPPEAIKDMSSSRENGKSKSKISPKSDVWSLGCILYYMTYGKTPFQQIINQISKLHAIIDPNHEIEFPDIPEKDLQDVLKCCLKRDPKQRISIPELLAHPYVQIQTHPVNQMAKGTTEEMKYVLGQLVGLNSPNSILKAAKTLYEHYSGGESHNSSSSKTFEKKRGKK

[2] = molecular target: T2, Serine/threonine-protein kinase Nek2 (Homo sapiens, UniProt P51955); conditions: u2os
T2 sequence (P51955 whole entry): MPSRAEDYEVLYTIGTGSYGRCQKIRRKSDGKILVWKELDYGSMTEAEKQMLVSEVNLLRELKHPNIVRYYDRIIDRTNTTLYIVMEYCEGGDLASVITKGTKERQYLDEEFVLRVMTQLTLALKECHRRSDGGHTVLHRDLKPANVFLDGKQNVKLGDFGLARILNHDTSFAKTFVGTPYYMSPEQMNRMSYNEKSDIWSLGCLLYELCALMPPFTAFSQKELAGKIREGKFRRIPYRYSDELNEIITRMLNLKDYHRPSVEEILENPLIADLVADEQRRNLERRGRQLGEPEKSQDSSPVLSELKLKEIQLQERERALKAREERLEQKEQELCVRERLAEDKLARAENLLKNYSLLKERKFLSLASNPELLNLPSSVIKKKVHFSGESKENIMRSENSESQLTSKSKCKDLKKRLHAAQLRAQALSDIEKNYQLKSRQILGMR
Description: Inhibition of Nek2-mediated C-Nap1 phosphorylation in human U2OS cells after 3 hrs by immunofluorescence microscopy

[3] = molecular target: Cyclin-dependent kinase 2 (Homo sapiens, UniProt P24941); test: Inhibition of CDK2 by caliper method
U2OS = test: Growth inhibition of human U2OS cells after 92 hrs by CellTiter-Blue assay; assay type: functional
[4] = molecular target: Serine/threonine-protein kinase PLK1 (Homo sapiens, UniProt P53350); test: Inhibition of Plk1 using 5-FAMRRRAGALMDASFEEQ- CONH2 as substrate after 75 mins by caliper method
Serine/threonine-protein kinase PLK1, sequence (P53350 whole entry): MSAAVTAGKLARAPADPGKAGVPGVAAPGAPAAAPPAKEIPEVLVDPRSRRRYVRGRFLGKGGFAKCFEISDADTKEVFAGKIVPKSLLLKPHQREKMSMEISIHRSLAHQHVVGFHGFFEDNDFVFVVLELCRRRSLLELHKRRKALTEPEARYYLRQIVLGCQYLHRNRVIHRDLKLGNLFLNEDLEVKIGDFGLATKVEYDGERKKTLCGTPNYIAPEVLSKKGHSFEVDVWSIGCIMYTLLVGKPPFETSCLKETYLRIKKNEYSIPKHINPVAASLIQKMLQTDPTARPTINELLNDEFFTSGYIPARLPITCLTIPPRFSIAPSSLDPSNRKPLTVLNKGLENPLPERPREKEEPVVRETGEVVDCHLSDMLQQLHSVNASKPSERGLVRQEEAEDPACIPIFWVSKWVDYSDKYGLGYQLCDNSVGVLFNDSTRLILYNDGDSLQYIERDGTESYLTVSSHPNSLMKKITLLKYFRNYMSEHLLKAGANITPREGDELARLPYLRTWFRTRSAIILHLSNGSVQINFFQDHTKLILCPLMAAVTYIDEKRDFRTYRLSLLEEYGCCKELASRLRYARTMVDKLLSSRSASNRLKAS

HeLa = test: Growth inhibition of human HeLa cells after 92 hrs by CellTiter-Blue assay; assay type: functional
Aurora kinase A = molecular target: T3, Aurora kinase A (Homo sapiens, UniProt O14965); test: Inhibition of Aurora A kinase by caliper method
T3 sequence (O14965 whole entry): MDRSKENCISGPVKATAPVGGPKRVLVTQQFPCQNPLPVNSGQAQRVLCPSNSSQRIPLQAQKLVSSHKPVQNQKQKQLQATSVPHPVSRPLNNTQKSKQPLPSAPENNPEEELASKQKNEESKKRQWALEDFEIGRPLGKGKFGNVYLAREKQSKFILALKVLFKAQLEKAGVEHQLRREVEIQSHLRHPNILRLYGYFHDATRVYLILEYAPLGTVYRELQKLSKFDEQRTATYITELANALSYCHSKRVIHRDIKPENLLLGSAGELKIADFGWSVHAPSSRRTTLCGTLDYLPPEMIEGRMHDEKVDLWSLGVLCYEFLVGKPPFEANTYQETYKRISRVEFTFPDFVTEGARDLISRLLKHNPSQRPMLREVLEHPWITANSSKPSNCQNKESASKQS

MCF7 = test: Growth inhibition of human MCF7 cells after 92 hrs by CellTiter-Blue assay; assay type: functional; conditions: MCF7, 92 h
MDA-MB-231 = test: Growth inhibition of human MDA-MB-231 cells after 92 hrs by CellTiter-Blue assay; assay type: functional; conditions: MDA-MB-231, 92 h
[5] = molecular target: T2, Serine/threonine-protein kinase Nek2
[6] = Drug metabolism in mouse liver microsomes after 30 mins; assay type: ADME, Microsome; conditions: read-out: Drug metabolism
[7] = Permeability of the compound by PAMPA assay; assay type: ADME

## C[C@@H](/C=C\C(F)(F)F)Oc1cc(-c2cc(-c3cc(CN(C)C)cs3)cnc2N)ccc1C(N)=O
[1]
  IC50: 7120 nM
[2]
  IC50: Not Active
[3]
  IC50: 530 nM
U2OS
  GI50: 2170 nM
[4]
  IC50: > 50000 nM
HeLa
  GI50: 440 nM
Aurora kinase A
  IC50: 2330 nM
MCF7
  GI50: 5420 nM
MDA-MB-231
  GI50: 7250 nM
[5]
  IC50: 1800 nM

## CC(Oc1cc(-c2nc(-c3ccc(CN(C)C)cc3)cnc2N)ccc1C(N)=O)c1ccccc1C(F)(F)F (racemic)
[4]
  IC50: 3900 nM
[5]
  IC50: 790 nM

## COc1cc(-c2cc(-c3cc(CN(C)C)cs3)cnc2N)ccc1C(N)=O
[5]
  IC50: 2260 nM

## CC(Oc1cc(-c2cc(-c3cccc(CN(C)C)c3)cnc2N)ccc1C(N)=O)c1ccccc1C(F)(F)F (racemic)
[4]
  IC50: 3290 nM
[5]
  IC50: 210 nM

## C[C@@H](Oc1cc(-c2cc(-c3cc(CN(C)C)cs3)cnc2N)ccc1C(N)=O)c1ccccc1C(F)(F)F
[1]
  IC50: 4810 nM
[3]
  IC50: 26600 nM
U2OS
  GI50: 480 nM
[4]
  IC50: 820 nM
HeLa
  GI50: 140 nM
Aurora kinase A
  IC50: 8810 nM
MCF7
  GI50: 220 nM
MDA-MB-231
  GI50: 950 nM

## CC(/C=C\C(F)(F)F)Oc1cc(-c2cc(-c3cc(CN(C)C)cs3)cnc2N)ccc1C(N)=O (racemic)
[4]
  IC50: 8410 nM
[6]
  metabolised at 0.5 h: 95%
[7]
  permeability: 27.6 ×10⁻⁶ cm/s
[5]
  IC50: 73 nM

## Cc1cc(CN(C)C)sc1-c1cnc(N)c(-c2ccc(C(N)=O)c(OC(C)c3ccccc3C(F)(F)F)c2)c1 (racemic)
[5]
  IC50: 58 nM

## CC(Oc1cc(-c2cc(-c3cc(CN(C)C)cs3)cnc2N)ccc1C(N)=O)c1ccccc1C(F)(F)F (racemic)
[4]
  IC50: 1320 nM
[6]
  metabolised at 0.5 h: 87%

## CC(Oc1cc(-c2nc(-c3ccc(CN(C)C)s3)cnc2N)ccc1C(N)=O)c1ccccc1C(F)(F)F (racemic)
[5]
  IC50: 2680 nM

## CC(Oc1cc(-c2cc(-c3ccc(CN4CCOCC4)s3)cnc2N)ccc1C(N)=O)c1ccccc1C(F)(F)F (racemic)
[5]
  IC50: 318 nM

## CC(Oc1cc(-c2cc(-c3ccc(CN4CCCCC4)s3)cnc2N)ccc1C(N)=O)c1ccccc1C(F)(F)F (racemic)
[5]
  IC50: 93 nM

## CC(Oc1cc(-c2cc(-c3ccc(CN(C)C)cc3)cnc2N)ccc1C(N)=O)c1ccccc1C(F)(F)F (racemic)
[1]
  IC50: 3060 nM
[3]
  IC50: 2740 nM
[4]
  IC50: 1560 nM
Aurora kinase A
  IC50: 7930 nM
[5]
  IC50: 120 nM

## COc1cc(-c2cc(-c3cccs3)cnc2N)ccc1C(N)=O
[5]
  IC50: 10500 nM

## CC(Oc1cc(-c2cc(-c3cccs3)cnc2N)ccc1C(N)=O)c1ccccc1C(F)(F)F (racemic)
[5]
  IC50: 9000 nM

## CC(Oc1cc(-c2cc(-c3ccc(CN(C)C)s3)cnc2N)ccc1C(N)=O)c1ccccc1C(F)(F)F (racemic)
[4]
  IC50: 500 nM
[5]
  IC50: 47 nM

## CC(Oc1cc(-c2nc(-c3cc(CN(C)C)cs3)cnc2N)ccc1C(N)=O)c1ccccc1C(F)(F)F (racemic)
[5]
  IC50: 2630 nM

## CC(Oc1cc(-c2nc(-c3cccc(CN(C)C)c3)cnc2N)ccc1C(N)=O)c1ccccc1C(F)(F)F (racemic)
[4]
  IC50: 12100 nM
[5]
  IC50: 2470 nM

## CC(Oc1cc(-n2cnc3cc(OC4CCN(C)CC4)ccc32)ccc1C(N)=O)c1ccccc1C(F)(F)F (racemic)
[2]
  IC50: Not Active
U2OS
  GI50: 2960 nM
HeLa
  GI50: 1200 nM
MCF7
  GI50: 2030 nM
MDA-MB-231
  GI50: 4950 nM

## Cc1cc(-c2cnc(N)c(-c3ccc(C(N)=O)c(OC(C)c4ccccc4C(F)(F)F)c3)c2)sc1CN(C)C (racemic)
[5]
  IC50: 47 nM
